Target: T1, Axl (Homo sapiens, UniProt P30530)
T1 construct: endogenous in cells; host or cells: HeLa cells
T1 sequence (P30530 26-894): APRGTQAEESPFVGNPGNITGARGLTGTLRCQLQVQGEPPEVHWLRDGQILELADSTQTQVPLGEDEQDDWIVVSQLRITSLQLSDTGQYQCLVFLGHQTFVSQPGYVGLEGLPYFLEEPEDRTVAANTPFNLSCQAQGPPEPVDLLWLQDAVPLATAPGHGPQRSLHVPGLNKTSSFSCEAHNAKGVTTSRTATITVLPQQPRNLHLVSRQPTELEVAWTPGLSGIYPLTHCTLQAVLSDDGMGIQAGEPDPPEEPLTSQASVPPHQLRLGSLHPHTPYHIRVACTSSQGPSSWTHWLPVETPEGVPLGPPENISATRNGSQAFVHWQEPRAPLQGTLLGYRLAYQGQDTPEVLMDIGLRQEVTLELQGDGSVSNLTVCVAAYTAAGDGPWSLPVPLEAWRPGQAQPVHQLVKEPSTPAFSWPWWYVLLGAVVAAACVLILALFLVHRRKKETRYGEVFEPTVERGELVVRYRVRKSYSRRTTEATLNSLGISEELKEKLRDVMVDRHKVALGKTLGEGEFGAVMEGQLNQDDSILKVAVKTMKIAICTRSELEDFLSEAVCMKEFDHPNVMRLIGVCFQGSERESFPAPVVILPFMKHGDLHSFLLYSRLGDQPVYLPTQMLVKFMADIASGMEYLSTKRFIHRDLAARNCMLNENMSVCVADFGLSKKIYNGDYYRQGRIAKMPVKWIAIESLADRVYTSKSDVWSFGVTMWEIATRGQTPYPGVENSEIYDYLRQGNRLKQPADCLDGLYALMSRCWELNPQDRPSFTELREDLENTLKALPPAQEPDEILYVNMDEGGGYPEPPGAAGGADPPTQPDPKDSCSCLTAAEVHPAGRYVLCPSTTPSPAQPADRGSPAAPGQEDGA
Assay: Phospho-Akt In-Cell Western Assay (ability to inhibit Axl activity)
Format: cell-based
Conditions: Hela cells, stimulated by Axl-antibody cross-linking, phospho-Akt chemiluminescence normalized to relative cell number
Method: The compounds of the invention were tested in the following assay for their ability to inhibit Axl activity.
Phospho-Akt In-Cell Western Assay
• Cell culture plate: 96 well assay plate (Corning 3610), white, clear bottom, tissue-culture treated. • Cells: Hela cells. • Starvation medium: For Axl stimulation: 0.5% FCS (fetal calf serum) in DMEM, plus Axl/Fc (extracellular domain of AXL fused to immunoglobulin Fc region) (R&D, 154-AL) 500 ng/mL. • For EGF (epidermal growth factor) stimulation: 0.5% FCS in DMEM (Dulbecco's modified Eagles medium). • Poly-L-Lysine 0.01% solution (the working solution): 10 μg/ml, dilute In PBS (phosphate buffered saline). • Axl antibody cross-linking: • 1st: Mouse anti-Axl (R&D, MAB154). • 2nd: Biotin-SP-conjugated AffiniPure goat anti-mouse IgG (H+L) (Jackson ImmunoResearch #115-065-003). • Fixing buffer: 4% formaldehyde in PBS. • Wash buffer: 0.1% TritonX-100 in PBS. • Quenching buffer: 3% H2O2, 0.1% Azide in wash buffer, Azide and hydrogen peroxide (H2O2) are added fresh. • Blocking buffer: 5% BSA in TBST (tris buffered saline plus 0.1% Tween 20). • Primary antibody: Rabbit anti-human Phospho-Akt antibody (Cell Signaling 9271): 1×250 diluted in blocking buffer. • Secondary antibody: HRP (horse radish peroxidase)-conjugated Goat anti-Rabbit secondary, stock solution: Jackson ImmunoResearch (Goat anti-Rabbit HRP, #111-035-144) 1:1 diluted in glycerol, store at −20° C. The working solution: 1×2000 dilution of stock in blocking buffer. • Chemiluminescent working solution (Pierce, 37030): SuperSignal ELISA (enzyme linked immunosorbant assay) Pico Chemiluminescent substrate. • Crystal Violet solution: Stock: 2.5% Crystal violet in methanol, filtered and kept at ambient temperature. The working solution: dilute the stock 1:20 with PBS immediately before use. • 10% SDS: working solution: 5% SDS (sodium dodecylsulfate), diluted in PBS Methods: Day 1:
A 96 well TC (tissue culture treated) plate was coated with 10 μg/mL poly-L-Lysine at 37° C. for 30 min, washed twice with PBS, and air-dried for 5 minutes before cells were added. Hela cells were seeded at 10,000 cells/well and the cells were starved in 100 μL starvation medium containing Axl/Fc for 24 hrs.
The cells were pre-treated with test compounds by adding 100 μL of 2× test compound to the starvation medium on the cells. The cells were incubated at 37° C. for 1 hr before stimulation.
The cells were stimulated by Axl-antibody cross-linking as follows: A 5×1st/2nd Axl antibody mixture was made (37.5 μg/mL 1st/100 μg/mL 2nd) in starvation medium and nutated at 4° C. with thorough mixing for 1-2 hours for clustering. The resulting mix was warmed to 37° C. 50 μL of 5× Axl 1st/2nd of antibody cluster was added to the cells and the cells were incubated at 37° C. for 5 min.
After 5 minutes stimulation, the plate was flicked to remove medium and the plate was tapped onto paper towels. Formaldehyde (4.0% in PBS, 100 μL) was added to fix the cells and the cells were incubated at ambient temperature for 20 min without shaking.
The cells were washed with a plate washer buffer to remove the formaldehyde solution. The plate was flicked to removed excess wash buffer and tapped onto paper towels. Quenching buffer (100 μL) was added to each well and the cells were incubated at ambient temperature for 20 minutes without shaking.
The cells were washed with a plate washer buffer to remove the quenching buffer. Blocking buffer (100 μL) was added and the cells were incubated at ambient temperature for at least an hour with gentle shaking.
The cells were washed with a plate washer buffer and diluted primary antibody (50 μL) was added to each well (blocking buffer was added to the negative control wells instead). The plates were incubated overnight at 4° C. with gentle shaking.
The wash buffer was removed, diluted secondary antibody (100 μL) was added, and the cells were incubated at ambient temperature for 1 hour with gentle shaking. […]

IC50	Compound
< 1 µM	Nc1nc(Nc2ccc(N3CCC(N4CCCC4)CC3)c(F)c2)nn1-c1cc(-c2ccsc2)c2c(n1)C1CCN2CC1 [Compound 64, 1-(1,4-ethano-8-thiophen-3-yl-1,2,3,4-tetrahydro-1,5-naphthyridin-6-yl)-N^3-(3-fluoro-4-(4-(pyrrolidin-1-yl)piperidin-1-yl)phenyl)-1H-1,2,4-triazole-3,5-diamine]
< 1 µM	CN1CCN(c2ccc(Nc3nc(N)n(-c4cc(-c5ccccc5)c5c(n4)C4CCC5C4)n3)cc2)CC1 (centres unmarked) [Compound 45, 1-(5,8-methano-4-phenyl-5,6,7,8-tetrahydroquinoline-2-yl)-N^3-(4-(4-methylpiperazin-1-yl)phenyl)-1H-1,2,4-triazole-3,5-diamine]
< 1 µM	Nc1nc(Nc2ccc(N3CCN(C4CC5CCC4C5)CC3)cc2)nn1-c1ncnc2c1C1CCC2C1 (centres unmarked) [Compound 18, 1-(5,8-methano-5,6,7,8-tetrahydroquinazolin-4-yl)-N^3-(4-(4-(bicyclo[2.2.1]heptan-2-yl)piperazin-1-yl)phenyl)-1H-1,2,4-triazole-3,5-diamine]
< 1 µM	COC(=O)[C@@H]1CCCN1C1CCN(c2ccc(Nc3nc(N)n(-c4cc(-c5ccccc5)c5c(n4)C4CCN5CC4)n3)cc2F)CC1 [Compound 60, 1-(1,4-ethano-8-phenyl-1,2,3,4-tetrahydro-1,5-naphthyridin-6-yl)-N^3-(3-fluoro-4-(4-((2S)-2-methyloxycarbonylpyrrolidin-1-yl)piperidin-1-yl)phenyl)-1H-1,2,4-triazole-3,5-diamine]
< 1 µM	CN1CCN(c2ccc(Nc3nc(N)n(-c4ncc5c(n4)C4CCC5C4)n3)cc2)CC1 (centres unmarked) [Compound 4, 1-(5,8-methano-5,6,7,8-tetrahydroquinazolin-2-yl)-N^3-(4-(4-methylpiperazin-1-yl)phenyl)-1H-1,2,4-triazole-3,5-diamine]
< 1 µM	Nc1nc(Nc2ccc3c(c2)CCC(NC2CCCC2)CC3)nn1-c1cc(-c2ccccc2)c2c(n1)C1CCN2CC1 (centres unmarked) [Compound 70, 1-(1,4-ethano-8-phenyl-1,2,3,4-tetrahydro-1,5-naphthyridin-6-yl)-N^3-(7-cyclopentylamino-6,7,8,9-tetrahydro-5H-benzo[7]annulene-3-yl)-1H-1,2,4-triazole-3,5-diamine]
< 1 µM	CN1CCN(C2CCN(c3ccc(Nc4nc(N)n(-c5cc(-c6ccccc6)c6c(n5)C5CCN6CC5)n4)cc3F)CC2)CC1 [Compound 41, 1-(1,4-ethano-8-phenyl-1,2,3,4-tetrahydro-1,5-naphthyridin-6-yl)-N^3-(3-fluoro-4-(4-(4-methylpiperazin-1-yl)piperidin-1-yl)phenyl)-1H-1,2,4-triazole-3,5-diamine]
< 1 µM	Nc1nc(Nc2ccc(N3CCC(N4CCC(C(=O)O)CC4)CC3)c(F)c2)nn1-c1cc(-c2ccccc2)c2c(n1)C1CCN2CC1 [Compound 59, 1-(1,4-ethano-8-phenyl-1,2,3,4-tetrahydro-1,5-naphthyridin-6-yl)-N^3-(3-fluoro-4-(4-(4-carboxypiperidin-1-yl)piperidin-1-yl)phenyl)-1H-1,2,4-triazole-3,5-diamine]
1 to 10 µM	Nc1nc(Nc2ccc(N3CCNC(C(=O)O)C3)c(F)c2)nn1-c1cc(-c2ccccc2)c2c(n1)C1CCN2CC1 (centres unmarked) [Compound 33, 1-(1,4-ethano-8-phenyl-1,2,3,4-tetrahydro-1,5-naphthyridin-6-yl)-N^3-(3-fluoro-4-(3-carboxypiperazin-1-yl)phenyl)-1H-1,2,4-triazole-3,5-diamine]
< 1 µM	COC(=O)[C@@H]1CN(c2ccc(Nc3nc(N)n(-c4cc(-c5ccccc5)c5c(n4)C4CCN5CC4)n3)cc2F)CCN1CC1CC1 [Compound 65, 1-(1,4-ethano-8-phenyl-1,2,3,4-tetrahydro-1,5-naphthyridin-6-yl)-N^3-(3-fluoro-4-((3S)-3-methyloxycarbonyl-4-cyclopropylmethylpiperazin-1-yl)phenyl)-1H-1,2,4-triazole-3,5-diamine]

Compound	IC50
CN1CCN(c2ccc(Nc3nc(N)n(-c4cc(-c5ccccc5)c5c(n4)C4CCN5CC4)n3)cn2)CC1 [Compound 28, 1-(1,4-ethano-8-phenyl-1,2,3,4-tetrahydro-1,5-naphthyridin-6-yl)-N^3-(2-(4-methylpiperazin-1-yl)pyridine-5-yl)-1H-1,2,4-triazole-3,5-diamine]	< 1 µM
Cc1csc2c(-n3nc(Nc4cnc5c(c4)C4CCC(C5)N4C)nc3N)ncnc12 (centres unmarked) [Compound 26, 1-(7-methylthieno[3,2-d]pyrimidin-4-yl)-N^3-(5,7-ethano-5,6,7,8-tetrahydro-6-methyl-1,6-naphthyridin-3-yl)-1H-1,2,4-triazole-3,5-diamine]	< 1 µM
CN1CCN(c2ccc(Nc3nc(N)n(-c4cc(-c5ccccc5)c5c(n4)C4CCN5CC4)n3)cc2)CC1 [Compound 35, 1-(1,4-ethano-8-phenyl-1,2,3,4-tetrahydro-1,5-naphthyridin-6-yl)-N^3-(4-(4-methylpiperazin-1-yl)phenyl)-1H-1,2,4-triazole-3,5-diamine]	< 1 µM
CN1CCC(c2ccc(Nc3nc(N)n(-c4cc(-c5ccccc5)c5c(n4)C4CCN5CC4)n3)cc2)CC1 [Compound 67, 1-(1,4-ethano-8-phenyl-1,2,3,4-tetrahydro-1,5-naphthyridin-6-yl)-N^3-(4-(1-methylpiperidin-4-yl)phenyl)-1H-1,2,4-triazole-3,5-diamine]	< 1 µM
1-((6R,8R)-6,8-dimethylmethano-5,6,7,8-tetrahydroquinoline-2-yl)-N^3-(3-fluoro-4-(4-(pyrrolidin-1-yl)piperidin-1-yl)phenyl)-1H-1,2,4-triazole-3,5-diamine [Compound 34]	< 1 µM
1-(5,8-methano-5,6,7,8-tetrahydroquinazolin-2-yl)-N^3-(4-(morpholin-1-yl)phenyl)-1H-1,2,4-triazole-3,5-diamine [Compound 5]	1 to 10 µM
Cc1csc2c(-n3nc(Nc4cnc5c(c4)C4CCC(C5)N4C)nc3N)nc(Cl)nc12 (centres unmarked) [Compound 24, 1-(2-chloro-7-methylthieno[3,2-d]pyrimidin-4-yl)-N^3-(5,7-ethano-5,7,8-trihydro-6-methyl-1,6-naphthyridin-3-yl)-1H-1,2,4-triazole-3,5-diamine]	< 1 µM

Source: patent US8609650B2, “Bridged bicyclic aryl and bridged bicyclic heteroaryl substituted triazoles useful as Axl inhibitors” (Rigel Pharmaceuticals, Inc., priority 2006, dated 2013)
